Source: patent US20040248801A1, “Methods and reagents for regulation of cellular responses in biological systems” (priority 2000, published 2004)

Experiments:
E. coli AW405 = assay: video microscopy motion analysis of bacteria; format: cell-based, Escherichia coli; conditions: first 5-15 seconds after addition of attractant
Description: FIG. 2A: Results of video microscopy motion analysis experiments. Bacteria (Escherichia coli) were treated with buffer alone, galactose, or compound 1 or 3 (Scheme 1) at the indicated saccharide concentrations. The results represent the average from at least five independent experiments performed in triplicate. Error bars represent the deviation between per-second averages during the ten second interval.
Ligands functionalized with galactose such as monovalent ligand 1 and multivalent ligand 3, also serve as attractants in vivo. […] To observe the effects of synthetic ligands on tumbling frequency, E. coli were treated with galactose or galactose-bearing ligands, and bacterial motion was recorded and analyzed using the method of Sager et al.. The tumbling frequency was assessed by averaging the mean angular velocity of the paths obtained in the first 5-15 seconds after addition of attractant (FIG. 2A). […]
Partially permeabilized bacteria (25 μM EDTA for 3 min. at room temperature, then quench with 50 μM CaCl2) at an OD550 of 0.1 were placed under a cover slip supported by additional cover slips in the method of Sager et al.. […] The bacterial motion at 28° C. was recorded, and the paths were analyzed using the ExpertVision system. Paths derived from the first 5 to 15 seconds following the introduction of attractant were analyzed. […] Data were analyzed using the Q and Students tests.

E. coli = conditions: galactose as attractant [34]; cited from earlier work
B. subtilis 011085 = assay: B. subtilis capillary accumulation assay; format: cell-based, Bacillus subtilis; conditions: saccharide residue concentration; 37° C., 30 min
From the text: FIG. 4: Results of B. subtilis capillary accumulation assays using ROMP-derived glucose ligands (compound 5-7, Scheme 1). Buffer alone, glucose, or glucose-bearing compounds 5-7 were used as attractants in the capillary accumulation assay. Results are shown for glucose, compound 5, compound 6, and compound 7. Results are the average of at least four trials performed in duplicate and error bars represent single standard deviations.
To test the generality of the observed valency-dependent differences in chemotactic activities and to investigate the role of membrane permeability in responses to our ligands, chemotactic experiments in B. subtilis were conducted. B. subtilis is a gram-positive bacterium that, like gram-negative E. coli, is able to respond to saccharide chemoattractants. In the case of B. subtilis, the multivalent ligands can directly interact with saccharide-sensing receptors, without having to first traverse the outer membrane. Glucose is a chemoattractant for B. subtilis, but galactose is not. Glucose-carrying ligands (compounds 5-7, Scheme 1) were effective chemoattractants for B. subtilis as shown in capillary accumulation assays. […] Free chemoattractant signal glucose had maximal activity as a chemoattractant at 0.5 mM. In analogy to observations with E. coli, as the valency of the ligand increases, the saccharide residue concentration of maximum chemotaxis decreases. […] The results observed indicate that in evolutionarily divergent bacteria E. coli and B. subtilis, the valency of the attractant influences chemotactic response.
E. coli from an overnight culture were grown in LB to OD550 0.4-0.6, washed twice with E. coli chemotaxis buffer, and then partially permeabilized. Bacteria were resuspended in chemotaxis buffer to an OD550 0.1 and utilized in the capillary accumulation assay at 30° C. for 60 min, as previously described. […] Data was analyzed using the Q and Students tests.

Jurkat cells = assay: Jurkat cell aggregation; format: cell-based
Description: Percent of Jurkat cells present in aggregates is plotted against the treatment. […] Aggregate formation could be inhibited by addition of 50 mM methyl a-D-mannopyranoside (a man). Compounds 9-12 were added to a final mannose concentrations of 0.5 μM or 5 μM along with a final ConA concentration of 5 μg/mL. Results are the average of at least three independent experiments and error bars represent single standard deviations.
The ability of Con A clusters formed on ROMP-derived polymers to aggregate Jurkat cells was examined initially by light microscopy (see FIG. 10). […] For Jurkat cells, inhibition occurred even at low concentrations (0.5 μM) of monovalent ligands. […] Increasing the concentration of the multivalent ligand 10-fold (5 μM) abolished aggregation activity, consistent with site saturation. […] The ability of Con A complexed to multivalent ligands to interact with cell surfaces was thus tunable. […]
Cells were pelleted at 400×g, resuspended gently into 50 μL PBS, and then added to slides for visualization at 200× magnification on a Zeiss Axioscope outfitted with the appropriate filter set. Approximately 100-200 cells were counted from random fields on each day.
Clusters were scored for at least two cells in direct contact with each other and expressed as a percentage of the total number of objects (individual cells and clusters) counted. […]

His-tagged FGF-8b = biological target: T1, His-tagged FGF-8b (Homo sapiens, UniProt P55075); assay: cross-linking of FGF-8b (EGS, SDS-PAGE); format: binding; conditions: increasing ratio of polymer or heparin to FGF-8b
T1 sequence (P55075 23-215 isoform P55075-3 limits assumed): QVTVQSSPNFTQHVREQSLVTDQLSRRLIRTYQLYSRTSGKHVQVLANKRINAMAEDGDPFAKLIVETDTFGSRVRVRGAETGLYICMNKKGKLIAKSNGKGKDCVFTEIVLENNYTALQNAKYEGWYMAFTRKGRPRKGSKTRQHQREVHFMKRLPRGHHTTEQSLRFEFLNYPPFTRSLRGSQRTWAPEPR
Description: FIGS. 15A and B are illustrations of SDS-PAGE-gels (12%, under reducing conditions) comparing cross-linking of FGF-8b mediated by nickel-chelating polymer (FIG. 15A) and heparin (FIG. 15B). FGF-8b was incubated with polymer 6 for 1 hour at 0° C. The ratio of FGF-8b to polymer was as follows: a. 1:0.001, b. 1:0.003, c. 1:0.01, d. 1:0.03, e. 1:0.1, f. 1:0.3, f. 1:1. EGS (ethylene glycol bis[succinimidylsuccinate]) was added, and cross-linking was allowed to proceed for 5 minutes at 0° C. The reactions were quenched with ethanolamine (excess) for 1 hour at 0° C. Samples were concentrated under vacuum, analyzed on a 12% SDS-PAGE gel under reducing conditions, and detected with Coomassie staining.
Specifically, one of the functions of the oligosaccharide heparin in vitro is to oligomerize FGF ligand proteins and present them to the FGF receptor in a multivalent fashion. […]
FGF-8b was incubated with polymer 6 for 1 hour at 0° C. […] Samples were concentrated under vacuum, analyzed on a 12% SDS-PAGE gel under reducing conditions, and detected with Coomassie staining.
FGF-8b was incubated with heparin (Sigma, porcine intestinal mucosa, 17-19 kDa) for 1 hour at 0° C. […] Samples were concentrated under vacuum, analyzed on a 12% SDS-PAGE gel under reducing conditions, and detected with Coomassie staining. […]

O=C[C@H](O)[C@@H](O)[C@@H](O)[C@H](O)CO [galactose, reference compound]
mean angular velocity (tumbling frequency) after addition of attractant (E. coli AW405): the mean angular velocity decreased | number of E. coli accumulated (E. coli): 120,000 bacteria

O=C[C@H](O)[C@@H](O)[C@H](O)[C@H](O)CO [glucose, reference compound]
concentration of maximum activity as chemoattractant (B. subtilis 011085): 0.5 mM

CO[C@H]1O[C@H](CO)[C@@H](O)[C@H](O)[C@@H]1O [methyl α-D-mannopyranoside]
effect on Con A aggregate formation (Jurkat cells; 50 mM): inhibited | effect on Con A-mediated Jurkat cell aggregation (Jurkat cells; ligand 0.5 μM premixed with Con A 5 μg/mL): inhibited aggregation

O=C(NCCOC1OC(CO)C(O)C(O)C1O)C1C[C@@H]2C=CC1C2 (stereo partly shown) [Compound 5]
concentration of maximum activity as chemoattractant (B. subtilis 011085): 1 mM

heparin
cross-linking pattern of FGF-8b (His-tagged FGF-8b): pattern in cross-linking indicative of oligomerization due to a specific ligand/scaffold interaction
